Results taken from patent US20110021554A1, “IMMUNE RESPONSE MODIFIER FORMULATIONS AND METHODS” (priority 2004, published 2011).

Assay: Effect of sodium chloride on solubility of the drug
Format: physicochemical
Settings: apparently due to salt formation

SMILES: CCc1nc2c(N)nc3ccccc3c2n1CCCCNS(C)(=O)=O [N-[4-(4-amino-2-ethyl-1H-imidazo[4,5-c]quinolin-1-yl)butyl]methanesulfonamide]
- Solubility of the drug in presence of sodium chloride: reduces solubility of the drug
